Source: patent publication US4368203A, “Antibiotics and derivatives thereof having β-lactamase inhibitory activity and production thereof” (priority 1977, dated 1983)
In brackets after ≈: the same amount, converted by molar mass. Read-outs that look alike come from different tables or passages of the source.

Legend:
[1] = tested on: Gram-positive and Gram-negative bacteria; assay: Antibiotic spectra (summary in words); format: cell-based; conditions: for Antibiotic activity against Gram-negative bacteria resistant to β-lactam antibiotics: genera Citrobacter, Proteus, Klebsiella, Enterobacter, Serratia as named at the place; for Antibiotic activity against Gram-positive bacteria: genera Staphylococcus, Diplococcus, Streptococcus, Bacillus as named at the place
[2] = tested on: Inducible penicillinase of Bacillus cereus 569 (ATCC 27348); assay: Susceptibility to beta-lactamase as enzymic substrate; format: biochemical; conditions: for Km: 30° C., pH 6.8 phosphate buffer, decrease of optical density at 301 nm (PS-6) or 308 nm (PS-7); for Behavior against β-lactamase: β-lactamase of Bacillus cereus
Protocol: (b) Inducible penicillinase of Bacillus cereus 569 (ATCC 27348). This beta-lactamase was induced by ampicillin and purified by CM-cellulose column chromatography.
Time course of the hydrolysis was traced at 30° C. by determining the decrease in optical density at 301 nm which corresponds specifically to the concentration of antibiotic PS-6. As described in Japanese Patent Application No. 94651/77, the antibiotic PS-5 sodium salt preparation gave a E1 cm^1% value of 267.5 at the λmax of 301 nm. If this preparation contained no water of crystallization, its epsilon value would be 8560.
As 5% of the initial optical density of antibiotic PS-5 at 301 nm remained even after the complete decomposition with hydroxylamine or beta-lactamase, the differential optical density of this substrate at 301 nm was supposed to be Δε=8132. This was supposed to be applicable to the antibiotic PS-6, and the following calculation was carried out.
(b) Inducible penicillinase of Bacillus cereus 569. Time course of the hydrolysis of antibiotic PS-6 by this beta-lactamase was followed under the above-described conditions by determining the optical density at 301 nm of the reaction mixtures containing 7.5 μl of the above mentioned enzyme preparation and […] of antibiotic PS-6 as the substrate in a total of 3.0 ml (final concentration of antibiotic PS-6=[…]/ml=8.63 μg/ml; optical density at 301 nm=0.366).
The behavior of the antibiotic PS-7 (sodium salt) against the induced-type penicillinase produced by Bacillus careus 569 (ATCC 27348) as the substrate was examined according to the following method:
Sodium salt of the antibiotic PS-7 was dissolved in 100 mM phosphate buffer solution (pH 6.8) at the indicated concentration.
The induced-type penicillinase of Bacillus cereus 569 (ATCC 27348) was induced by Ampicillin and partially purified by CM cellulose (Brown Co.) column chromatography.
The solution of the antibiotic PS-7 that was served as the substrate was warmed at 30° C. […] The reaction was carried out at 30° C. and a decrease in the substrate, antibiotic PS-7, was monitered by the absorbance at 308 nm.
A balance of absorbance at 308 nm was determined to be ε=9720 on the assumption that the ε value of the antibiotic PS-7 is 10,800 based on the decrease in the absorbance when pure preparation of the antibiotic PS-7 was completely decomposed by the enzyme above mentioned.
A reaction mixture containing 10 μl of the penicillinase preparation and 102 mμ moles of the antibiotic PS-7 (final concentration: 34 mμ moles/ml) in a total volumn of 3.0 ml was incubated under the conditions mentioned above and change of decreasing concentration of the antibiotic PS-7 was measured in relation to the incubation time.

Solubility = format: physicochemical; conditions: antibiotic (sodium salt); for Solubility in organic solvents: solvents named in the value
From the text: The results are as shown as below:
The results are as shown below:

[3] = Acute toxicity, intraperitoneal administration; format: in vivo, DDY male mice
[4] = tested on: Enterobacter cloacae E-16; assay: MIC, broth dilution method; format: cell-based; conditions: Enterobacter cloacae, read-out: Minimum inhibitory concentration
Protocol: Sodium salt of the antibiotic PS-7 was dissolved and diluted with the BRAIN HEART INFUSION BROTH "Eiken" at a concentration between 5 μg/ml and 100 μg/ml. The solution was further diluted with the same medium to obtain a series of geometric concentrations. To the serial dilutions were added the seed cultures prepared by shaking culture of various test microorganisms shown in Tab. 5 in the BRAIN HEART INFUSION GROTH at 28° C. for 18 hours, the final cell count being about 1×10^5 /ml. […] The lowest concentration at which no cell growth was observed was the minimum inhibitory concentration of the antibiotic PS-7 on the test microorganism. […] The minimum inhibitory concentrations on test strains were determined in the same manner as mentioned above.

[5] = tested on: Staphylococcus aureus Smith; assay: In vivo activity in intraperitoneally infected mice; parameters: species or system DDY male mice; conditions: for ED50: Staphylococcus aureus, sc, mice infected i.p. with 5×10^5 cells/mouse, subcutaneous injection just after infection, read-out: 50% curative dose (CD50); for Therapeutic effect in infected mice: mice infected with pathogenic Gram-positive bacteria
Protocol: Soon after infection, an aqueous solution of the antibiotic PS-5 sodium salt preparation was subcutaneously injected.
Activity of the antibiotic PS-7 obtained above was determined using mice infected with Staphylococcus aureus Smith at 5×10^5 cells a mouse intraperitoneally. Sodium salt of the antibiotic PS-7 was administered to the mice subcutaneously immediately after the infection.
The tritylation product of antibiotic PS-6 was subcutaneously injected just after infection. The 50% curative dose on male DDY mice (SHIZUOKA) was 5.5 mg/kg.
The tritylation product of antibiotic PS-7 was subcutaneously injected just after infection. The 50% curative dose on make DDY mice (SHIZUOKA) was 4.5 mg/kg.

Proteus vulgaris P-5 = assay: Potentiating and synergistic effect, pulp disc inhibition zone on agar plate; format: cell-based; conditions: for Diameter of inhibitory zone, No addition / Diameter of inhibitory zone, Cephaloridine-added: Table 8; for Diameter of inhibitory zone, No addition: medium without cephaloridine; for Diameter of inhibitory zone, Cephaloridine-added: cephaloridine in the agar
Protocol: 10 ml of 2.5 folds diluted nutrient agar (pH 7.0) containing 50 μg/ml of penicillin G or cephaloridine was seeded with the β-lactamase producing and β-lactam-resistant microorganisms and poured in a 9 cm Petri dish to provide the bio-assay agar plate. […] A control assay plate was similarly prepared without penicillin G or cephaloridine. As reference antibiotics, 10,000 μg/ml of penicillin G or 20 μl of cephaloridine were disc-assayed under the same conditions.
Cepholoridine was added to a 2.5-times diluted nutrient agar, pH 7.0 and the medium was inoculated with a β-lactam-producing strain that produceds β-lactamase. Ten ml of the medium was spread and solidified in a petri dish of 9 cm in diameter to prepare an assay plate. […] Each 20 μl of the solution and its 2- and 4-times diluted solutions was soaked in a pulp disc of 8 mm in diameter. To the surface of the above nutrient agar was placed the pulp disc and the size of the growth inhibitory zone around the disc was examined after incubation at 35° C. for 18 hours. […] In addition, for the comparison, a similar experiment was also performed with a pulp disk soaked with 20 μl of 10,000 μg/ml Penicillin G or Cepholoridine solution in place of the antibiotic PS-7.

[6] = disc x2 (2-times diluted PS-7 solution)
[7] = disc x4 (4-times diluted PS-7 solution)

SMILES	Antibiotic activity against Gram-negative bacteria of the genus Alcaligenes (Comamonas) [1]	Antibiotic activity against Gram-negative bacteria resistant to β-lactam antibiotics [1]	Antibiotic activity against Gram-positive bacteria [1]	Km [2] [µM]	Behavior against β-lactamase [2]	Solubility in water (Solubility)	Solubility in organic solvents (Solubility)	Acute toxicity ([3]; mice, 500 mg/kg)	ED50 [5] [mg/kg]	Therapeutic effect in infected mice [5]	other results
CC(=O)NCCSC1=C(C(=O)O)N2C(=O)C(C(C)C)C2C1 (stereo not shown) [Antibiotic PS-6]	very strong activity	strong activity	very strong activity	17.7	inactivated	soluble in water at pH 6 to 9	substantially insoluble in benzene, acetone and ethylacetate	no toxicity	5.2	marked therapeutic effect	Antibiotic activity against Gram-negative bacteria of the genera Klebsiella, Proteus [1]: good activity; Acute toxicity ([3]; mice, 500 mg/kg, listed as PS-6 sodium salt): No acute toxicity; MIC ([4]; E16, 20 h, Table 5, betalactamase producer): 25 µg/mL (≈ 80 µM); zone of inhibition at 240 µg/mL (Proteus vulgaris P-5; Proteus vulgaris, P5, Table 6, plate without penicillin G or cephaloridine, 8 mm disc, 20 μl, PS-6 240 μg/ml, reference antibiotics 10,000 μg/ml, 35° C. 18 hours, read-out: Inhibition zone, Control): 14 mm; Inhibition zone, with cephaloridine (Proteus vulgaris P-5; Table 6, agar containing 50 μg/ml of cephaloridine, disc 20 μl, PS-6 240 μg/ml, reference antibiotics 10,000 μg/ml): 28.5 mm; Inhibition zone, with penicillin G (Proteus vulgaris P-5; Table 6, agar containing 50 μg/ml of penicillin G, disc 20 μl, PS-6 240 μg/ml, reference antibiotics 10,000 μg/ml): 30.0 mm
CCC1C(=O)N2C(C(=O)O)=C(SC=CNC(C)=O)CC12 (stereo not shown) [Antibiotic PS-7]	high antimicrobial activity	high antimicrobial activity	very high antimicrobial activity	13	inactivated	Soluble in water at pH6-9	practically insoluble in benzene, acetone and ethyl acetate	no acute toxicity	7.5	marked therapeutic effect	Acute toxicity ([3]; DDY male mice, dose not given): No acute toxicity; MIC ([4]; E16, Table 7, no unit in the head, lactamase-producing strain): 6.25 µg/mL (≈ 21.1 µM); Diameter of inhibitory zone, No addition (Proteus vulgaris P-5; disc x1 (undiluted PS-7 solution, 50 μg/ml or 29 μg/ml, 20 μl)): 0.0 mm; Diameter of inhibitory zone, Cephaloridine-added (Proteus vulgaris P-5; disc x1 (undiluted PS-7 solution, 20 μl)): 19.0 mm; Diameter of inhibitory zone, Cephaloridine-added (Proteus vulgaris P-5; [6]): 15.0 mm; Diameter of inhibitory zone, No addition (Proteus vulgaris P-5; [6]): 0.0 mm; Diameter of inhibitory zone, Cephaloridine-added (Proteus vulgaris P-5; [7]): 11.0 mm; Diameter of inhibitory zone, No addition (Proteus vulgaris P-5; [7]): 0.0 mm
